{"source": "patent US20090192151A1", "about": "“THERAPEUTIC AMIDES AND RELATED COMPOUNDS” (priority 2008, published 2009)", "tested_on": "lashes and adjacent hairs", "test": "Clinical observation of lashes and adjacent hairs in glaucoma patients treated with bimatoprost in only one eye", "assay_type": "in vivo", "from_the_text": "In the course of treating patients having glaucoma, treatment may only be appropriate in one eye. […] The lash appearance on the lids of the treated eyes would have appeared quite attractive if it represented a bilateral phenomenon. As a result of its asymmetric nature, the long lashes on one side could be construed as disturbing from a cosmetic standpoint. A systemic examination was preformed as a result of the asymmetric phenomenon. It soon became apparent that this altered appearance was not an isolated finding.\nThe changes in the lashes were apparent on gross inspection in several patients once attention was focused on the issue. In those with light colored hair and lashes, the differences were only seen easily with the aid of the high magnification and lighting capabilities of the slit lamp biomicroscope. In the course of glaucoma follow-up examination, attention is generally immediately focused on the eye itself. As a result of the high power magnification needed only one eye is seen at a time and the eye is seen at a high enough power that the lashes are not in focus. At these higher powers, any lash asymmetry between the two eyes is not likely to be noticed except by careful systematic comparison of the lashes and adjacent hairs of the eyelids of the two eyes.\nObserved parameters leading to the conclusion that more robust hair growth occurred in the treatment area following administration of the prostaglandin analogue were multiple. They included increased length of lashed, increased number of lashes along the normal lash line, increased thickness and luster of lashes, increased auxiliary lash-like terminal hair in transitional areas adjacent to areas of normal lash growth, increased auxiliary lash-like terminal hairs at the medial and lateral canthal area, increased pigmentation of the lashes, increased numbers, increased length, as well as increased luster, and thickness of fine hair on the skin of the adjacent lid, and finally, increased perpendicular angulation of lashes and lash-like terminal hairs."}
{"compound": "CCNC(=O)CCC/C=C\\C[C@@H]1[C@@H](/C=C/[C@@H](O)CCc2ccccc2)[C@H](O)C[C@@H]1O", "note": "[bimatoprost]", "values": [{"measurement": "lash appearance in treated eye versus non-treated eye", "setting": "a glaucoma patient treated with bimatoprost in one eye, gross examination", "value": "longer, thicker, and fuller in the treated eye than in the non-treated eye"}, {"measurement": "differences in the lashes and adjacent hairs of treated side", "setting": "all patients taking the drug on a unilateral basis for longer than 6 months", "value": "Definite differences could be identified to varying degrees"}, {"measurement": "hair growth, conclusion from multiple parameters of hair appearance in treated versus control areas", "setting": "many subjects, lash length, number, thickness, luster, pigmentation, auxiliary terminal hairs", "value": "hair growth is stimulated"}]}
